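Values below derive from 48-hour exposures of cells grown in 96-well plates, with endpoints linearly interpolated between the two concentrations bracketing the appropriate inhibition level. TGI marks complete inhibition of growth.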
What was measured:
Test in all cases: NCI anticancer screen, dose series, 48 h
[1] = tested on: NCI-H460 lung
[2] = tested on: RXF 393 renal
[3] = tested on: NCI-H23 lung
[4] = tested on: EKVX NSCLC
[5] = tested on: A498 renal
[6] = tested on: SK-MEL-2 melanoma
[7] = tested on: 786-0 renal
[8] = tested on: RPMI-8226 leukemia
[9] = tested on: NCI-H522 lung
[10] = tested on: HOP-18 NSCLC
[11] = tested on: OVCAR-3 ovarian
[12] = tested on: KM12 colon
[13] = tested on: SR leukemia
[14] = tested on: HCC-2998 colon
[15] = tested on: M14 melanoma
[16] = tested on: NCI-H226 lung
[17] = tested on: IGROV1 ovarian
[18] = tested on: KM20L2 colon
[19] = tested on: DMS 273 small cell lung
[20] = tested on: SK-MEL-28 melanoma
[21] = tested on: U251 CNS
[22] = tested on: M19-MEL melanoma
[23] = tested on: UACC-257 melanoma
[24] = tested on: SNB-78 CNS
[25] = tested on: A549 NSCLC
[26] = tested on: HOP-92 NSCLC
[27] = tested on: HCT-116 colon
[28] = tested on: COLO 205 colon
[29] = tested on: ACHN renal
[30] = tested on: SK-OV-3 ovarian
[31] = tested on: DMS 114 small cell lung
[32] = tested on: SW-620 colon
[33] = tested on: HCT-15 colon
[34] = tested on: XF 498 CNS
[35] = tested on: SN12C renal
[36] = tested on: SNB-19 CNS
[37] = tested on: CCRF-CEM leukemia
[38] = tested on: OVCAR-5 ovarian
[39] = tested on: SNB-75 CNS
[40] = tested on: LXFL 529 NSCLC
[41] = tested on: LOX IMVI melanoma
[42] = tested on: UO-31 renal
[43] = tested on: SF-539 CNS
[44] = tested on: HT29 colon
[45] = tested on: MOLT-4 leukemia
[46] = tested on: MALME-3M melanoma
[47] = tested on: OVCAR-4 ovarian
[48] = tested on: SK-MEL-5 melanoma
[49] = tested on: SF-268 CNS
[50] = tested on: TK-10 renal
[51] = tested on: DLD-1 colon
[52] = tested on: OVCAR-8 ovarian
[53] = tested on: HL-60(TB) leukemia
[54] = tested on: HOP-62 NSCLC
[55] = tested on: K-562 leukemia
[56] = tested on: UACC-62 melanoma
[57] = tested on: SF-295 CNS
[58] = tested on: CAKI-1 renal

SMILES: CCCCc1c2c(nc3c1CCCC3=O)C(=O)CCC2
- TGI [1]: > 100 µM
- TGI [2]: > 100 µM
- TGI [3]: > 100 µM
- TGI [4]: > 100 µM
- TGI [5]: > 100 µM
- TGI [6]: > 100 µM
- TGI [7]: > 100 µM
- TGI [8]: > 100 µM
- TGI [9]: > 100 µM
- TGI [10]: > 100 µM
- TGI [11]: > 100 µM
- TGI [12]: > 100 µM
- TGI [13]: > 100 µM
- TGI [14]: > 100 µM
- TGI [15]: > 100 µM
- TGI [16]: > 100 µM
- TGI [17]: > 100 µM
- TGI [18]: > 100 µM
- TGI [19]: > 100 µM
- TGI [20]: > 100 µM
- TGI [21]: > 100 µM
- TGI [22]: > 100 µM
- TGI [23]: > 100 µM
- TGI [24]: > 100 µM
- TGI [25]: > 100 µM
- TGI [26]: > 100 µM
- TGI [27]: > 100 µM
- TGI [28]: > 100 µM
- TGI [29]: > 100 µM
- TGI [30]: > 100 µM
- TGI [31]: > 100 µM
- TGI [32]: > 100 µM
- TGI [33]: > 100 µM
- TGI [34]: > 100 µM
- TGI [35]: > 100 µM
- TGI [36]: > 100 µM
- TGI [37]: > 100 µM
- TGI [38]: > 100 µM
- TGI [39]: > 100 µM
- TGI [40]: > 100 µM
- TGI [41]: > 100 µM
- TGI [42]: > 100 µM
- TGI [43]: > 100 µM
- TGI [44]: > 100 µM
- TGI [45]: > 100 µM
- TGI [46]: > 100 µM
- TGI [47]: > 100 µM
- TGI [48]: > 100 µM
- TGI [49]: > 100 µM
- TGI [50]: > 100 µM
- TGI [51]: > 100 µM
- TGI [52]: > 100 µM
- TGI [53]: > 100 µM
- TGI [54]: > 100 µM
- TGI [55]: > 100 µM
- TGI [56]: > 100 µM
- TGI [57]: > 100 µM

SMILES: CN(C)c1nc(=Nc2ccc3c(c2)OCO3)ss1
- TGI [1]: > 100 µM
- TGI [2]: > 100 µM
- TGI [3]: > 100 µM
- TGI [4]: > 100 µM
- TGI [5]: > 100 µM
- TGI [6]: > 100 µM
- TGI [7]: > 100 µM
- TGI [8]: 57.8 µM
- TGI [9]: > 100 µM
- TGI [10]: > 100 µM
- TGI [12]: > 100 µM
- TGI [14]: > 100 µM
- TGI [15]: > 100 µM
- TGI [16]: > 100 µM
- TGI [17]: > 100 µM
- TGI [18]: > 100 µM
- TGI [19]: > 100 µM
- TGI [20]: > 100 µM
- TGI [21]: > 100 µM
- TGI [22]: > 100 µM
- TGI [23]: > 100 µM
- TGI [24]: > 100 µM
- TGI [25]: > 100 µM
- TGI [26]: > 100 µM
- TGI [27]: > 100 µM
- TGI [29]: > 100 µM
- TGI [30]: > 100 µM
- TGI [31]: > 100 µM
- TGI [32]: > 100 µM
- TGI [33]: > 100 µM
- TGI [34]: > 100 µM
- TGI [35]: > 100 µM
- TGI [36]: > 100 µM
- TGI [37]: > 100 µM
- TGI [38]: > 100 µM
- TGI [39]: 66 µM
- TGI [40]: > 100 µM
- TGI [41]: > 100 µM
- TGI [42]: 83.3 µM
- TGI [58]: > 100 µM
- TGI [43]: > 100 µM
- TGI [44]: > 100 µM
- TGI [45]: 78.4 µM
- TGI [46]: > 100 µM
- TGI [47]: > 100 µM
- TGI [48]: > 100 µM
- TGI [49]: > 100 µM
- TGI [50]: > 100 µM
- TGI [51]: > 100 µM
- TGI [52]: > 100 µM
- TGI [53]: 60 µM
- TGI [54]: > 100 µM
- TGI [55]: > 100 µM
- TGI [56]: > 100 µM
- TGI [57]: > 100 µM

SMILES: CCN1C(=O)N(C)C(O)c2c1nc1ccccn1c2=O (configuration not stated)
- TGI [1]: 42.8 µM
- TGI [2]: 59 µM
- TGI [3]: 63.6 µM
- TGI [4]: 53 µM
- TGI [5]: 66.2 µM
- TGI [6]: 62.8 µM
- TGI [7]: 98.4 µM
- TGI [8]: 78.6 µM
- TGI [9]: 65.6 µM
- TGI [10]: 65.3 µM
- TGI [11]: 63.9 µM
- TGI [12]: > 100 µM
- TGI [13]: > 100 µM
- TGI [14]: 43.6 µM
- TGI [15]: > 100 µM
- TGI [16]: > 100 µM
- TGI [17]: > 100 µM
- TGI [18]: 59.8 µM
- TGI [19]: 42.4 µM
- TGI [20]: 77.6 µM
- TGI [21]: > 100 µM
- TGI [22]: 83.6 µM
- TGI [23]: > 100 µM
- TGI [24]: 82.5 µM
- TGI [25]: 98.6 µM
- TGI [26]: 62.5 µM
- TGI [27]: 84.1 µM
- TGI [28]: 37.6 µM
- TGI [29]: > 100 µM
- TGI [30]: 59.4 µM
- TGI [31]: > 100 µM
- TGI [32]: > 100 µM
- TGI [33]: > 100 µM
- TGI [34]: 83.4 µM
- TGI [35]: 64 µM
- TGI [36]: > 100 µM
- TGI [37]: 95.5 µM
- TGI [39]: 56.7 µM
- TGI [40]: > 100 µM
- TGI [41]: 33.2 µM
- TGI [42]: > 100 µM
- TGI [43]: 54.3 µM
- TGI [44]: 70.7 µM
- TGI [45]: > 100 µM
- TGI [46]: > 100 µM
- TGI [47]: > 100 µM
- TGI [49]: 68.8 µM
- TGI [50]: 60.4 µM
- TGI [51]: > 100 µM
- TGI [52]: 46.4 µM
- TGI [53]: 90.7 µM
- TGI [54]: 98.6 µM
- TGI [55]: > 100 µM
- TGI [56]: 1.98 µM
- TGI [57]: > 100 µM
